≈ marks a conversion by molar mass, not a printed value. Read-outs that look alike come from different tables or passages of the source.
Assays:
human (hACC2) ACC2 = human (hACC2) ACC2 (Homo sapiens, UniProt O00763); assay: In vitro Acetyl-CoA Carboxylase (ACC) inhibition assay (ADP-Glo), hACC2; assay type: biochemical
Description: The detailed procedure is as follows. […] 10 μL ADP glo reagent was added. […] 20 μL kinase detection reagent was added.
“NA” stands for “not assayed.”

C. albicans ATCC 90028 = assay: Anti-Fungal (Candida) Activity Assay, broth microtiter MIC; assay type: cell-based; settings: read-out: MIC C. albicans ATCC 90028
How it was run: (§1)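 MIC by visual comparison of challenged wells with growth control, scored at 48 h. Setup: CLSI M27-A3 broth microtiter plates, RPMI 1640+MOPS medium, direct colony suspension from overnight Sabouraud agar cultures (35 °C, 24 h).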

C. krusei ATCC 6258 = assay: as above; assay type: cell-based; settings: Pichia kudriavzevii, read-out: MIC C. krusei ATCC 6258
How it was run: as §1

[1] = system: C. parapsilosis ATCC 22019; assay: as above; assay type: cell-based; settings: Lodderomyces parapsilosis, read-out: MIC C. parapsilosis ATCC 22019
How it was run: as §1

fungal (fACC2) ACC2 = fungal (fACC2) ACC2 (UniProt Q00955); settings: read-out: fACC2 IC50; fungal ACC2, ADP-Glo
Description: An exemplary procedure for the in vitro ACC inhibition assay, which can be used to determine the inhibitory action of compounds of the invention toward either human (hACC2) or fungal (fACC2) ACC2, follows. The ADP-Glo™ Kinase Assay kit from Promega was used. The ADP-Glo™ Kinase Assay is a luminescent ADP detection assay to measure enzymatic activity by quantifying the amount of ADP produced during an enzyme reaction. The assay is performed in two steps; first, after the enzyme reaction, an equal volume of ADP-Glo™ Reagent is added to terminate the reaction and deplete the remaining ATP. Second, the Kinase Detection Reagent is added to simultaneously convert ADP to ATP and allow the newly synthesized ATP to be measured using a luciferase/luciferin reaction. Luminescence can be correlated to ADP concentrations by using an ATP-to-ADP conversion curve. The detailed procedure is as follows. 50 μL of the compound being tested (600 μM in DMSO) was added to a 384-well dilution plate. The compound was diluted 1:3 in succession in DMSO for each row for 11 wells. 0.5 μL ACC2 working solution was added to 384-well white Optiplate assay plate. 0.5 μL diluted compound solution in each column from step 2 was added to assay plate, each row containing 2 replicates. […] The plates were incubated at room temperature for 15 minutes. 5 μL substrate working solution was added to each well to initiate reaction. Final ACC2 reaction concentrations consist of: 5 nM ACC2, 20 μM ATP, 20 μM acetyl-CoA, 12 mM NaHCO3, 0.01% Brij35, 2 mM DTT, 5% DMSO, test compound concentrations: 30 μM, 10 μM, 3.33 μM, 1.11 μM, 0.37 μM, 0.123 μM, 0.0411 μM, 0.0137 μM, 0.00457 μM, 0.00152 μM, and 0.00051 μM. Plates were incubated at room temperature for 60 minutes. 10 μL ADP glo reagent was added. Plates were incubated at room temperature for 40 minutes. 20 μL kinase detection reagent was added. Plates were incubated at room temperature for 40 minutes, and then read on a Perkin Elmer EnVision 2104 plate reader for luminescence as Relative Light Units (RLU).
Data for each concentration, as well as the positive and negative controls were averaged, and the standard deviation calculated. Percent inhibition was calculated by the formula: 100×(average negative control−compound)/(average negative control−average positive control). The IC50 for each compound was calculated by fitting the data with a non-linear regression equation: Y=Bottom+(Top-Bottom)/(1+10^((Log IC50−X)*Hill Slope)), where X is the log of compound concentration and Y is percent inhibition.
Compounds having an activity designated as “AA” provided an IC50 0.0006-0.003 μM; provided an “A” provided an IC50 0.003-0.01 μM; compounds having an activity designated as “B” provided an IC50 0.01-0.04 μM; and compounds having an activity designated as “C” provided an IC50>0.04 μM IC50. “NA” stands for “not assayed.”

[2] = ATCC90028, 3 replicates, MIC recorded at 48 h
[3] = ATCC6258, 3 replicates, MIC recorded at 48 h
[4] = ATCC22019, 3 replicates, MIC recorded at 48 h

fungal (fACC2) ACC2, sequence (Q00955 whole entry): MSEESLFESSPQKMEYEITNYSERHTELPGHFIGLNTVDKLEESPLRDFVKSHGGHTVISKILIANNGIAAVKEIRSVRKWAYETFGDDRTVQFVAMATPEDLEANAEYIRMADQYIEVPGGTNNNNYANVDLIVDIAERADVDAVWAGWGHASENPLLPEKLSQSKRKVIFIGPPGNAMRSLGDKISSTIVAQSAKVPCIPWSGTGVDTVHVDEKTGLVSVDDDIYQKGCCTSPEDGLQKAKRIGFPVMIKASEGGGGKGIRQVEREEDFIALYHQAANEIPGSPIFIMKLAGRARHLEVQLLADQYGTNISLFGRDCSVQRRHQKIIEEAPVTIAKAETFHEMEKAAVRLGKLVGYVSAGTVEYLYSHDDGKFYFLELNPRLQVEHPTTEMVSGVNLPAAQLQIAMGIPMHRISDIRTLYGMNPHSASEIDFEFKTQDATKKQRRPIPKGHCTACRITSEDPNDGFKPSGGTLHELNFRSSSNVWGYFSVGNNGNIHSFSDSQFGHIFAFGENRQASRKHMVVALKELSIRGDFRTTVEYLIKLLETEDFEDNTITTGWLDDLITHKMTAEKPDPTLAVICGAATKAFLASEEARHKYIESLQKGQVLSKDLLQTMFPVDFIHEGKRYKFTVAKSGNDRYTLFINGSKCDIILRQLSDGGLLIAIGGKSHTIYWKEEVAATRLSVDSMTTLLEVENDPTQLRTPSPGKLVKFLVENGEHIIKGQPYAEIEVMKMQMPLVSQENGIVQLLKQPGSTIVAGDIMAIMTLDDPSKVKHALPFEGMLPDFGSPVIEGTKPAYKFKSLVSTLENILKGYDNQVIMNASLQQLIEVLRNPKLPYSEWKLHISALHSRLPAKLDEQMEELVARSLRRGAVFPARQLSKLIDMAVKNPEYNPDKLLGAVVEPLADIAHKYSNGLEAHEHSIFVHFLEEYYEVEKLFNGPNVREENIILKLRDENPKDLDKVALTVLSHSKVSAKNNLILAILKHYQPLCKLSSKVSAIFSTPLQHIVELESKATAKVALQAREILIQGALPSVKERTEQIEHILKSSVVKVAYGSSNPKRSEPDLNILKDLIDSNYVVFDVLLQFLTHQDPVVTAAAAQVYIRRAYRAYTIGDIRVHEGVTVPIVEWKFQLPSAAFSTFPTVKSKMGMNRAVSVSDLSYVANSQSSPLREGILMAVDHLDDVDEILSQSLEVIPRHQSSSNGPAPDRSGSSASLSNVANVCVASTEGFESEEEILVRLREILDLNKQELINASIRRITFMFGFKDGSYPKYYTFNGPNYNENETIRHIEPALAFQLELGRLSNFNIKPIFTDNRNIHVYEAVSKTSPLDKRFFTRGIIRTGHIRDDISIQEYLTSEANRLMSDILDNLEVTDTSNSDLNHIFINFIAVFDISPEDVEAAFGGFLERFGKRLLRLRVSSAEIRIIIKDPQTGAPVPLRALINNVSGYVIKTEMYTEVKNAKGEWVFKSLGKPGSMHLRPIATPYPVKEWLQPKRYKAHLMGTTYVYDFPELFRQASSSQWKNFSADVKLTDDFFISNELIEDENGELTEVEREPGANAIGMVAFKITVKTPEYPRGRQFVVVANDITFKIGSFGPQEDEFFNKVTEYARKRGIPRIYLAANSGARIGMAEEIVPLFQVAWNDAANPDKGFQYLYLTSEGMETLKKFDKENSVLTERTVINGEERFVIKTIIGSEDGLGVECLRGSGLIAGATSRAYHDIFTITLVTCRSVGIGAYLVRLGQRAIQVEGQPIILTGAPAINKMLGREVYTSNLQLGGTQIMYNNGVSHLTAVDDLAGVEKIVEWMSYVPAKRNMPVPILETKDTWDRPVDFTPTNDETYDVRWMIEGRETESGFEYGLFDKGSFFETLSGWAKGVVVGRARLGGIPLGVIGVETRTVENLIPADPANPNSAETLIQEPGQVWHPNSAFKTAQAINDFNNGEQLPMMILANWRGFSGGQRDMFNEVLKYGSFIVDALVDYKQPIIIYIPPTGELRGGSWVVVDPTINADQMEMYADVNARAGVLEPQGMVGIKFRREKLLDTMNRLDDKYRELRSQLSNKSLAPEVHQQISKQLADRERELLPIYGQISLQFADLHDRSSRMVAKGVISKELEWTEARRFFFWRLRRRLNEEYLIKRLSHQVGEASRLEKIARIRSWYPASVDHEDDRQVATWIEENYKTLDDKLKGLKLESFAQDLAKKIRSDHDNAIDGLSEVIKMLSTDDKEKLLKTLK
human (hACC2) ACC2, sequence (O00763 whole entry): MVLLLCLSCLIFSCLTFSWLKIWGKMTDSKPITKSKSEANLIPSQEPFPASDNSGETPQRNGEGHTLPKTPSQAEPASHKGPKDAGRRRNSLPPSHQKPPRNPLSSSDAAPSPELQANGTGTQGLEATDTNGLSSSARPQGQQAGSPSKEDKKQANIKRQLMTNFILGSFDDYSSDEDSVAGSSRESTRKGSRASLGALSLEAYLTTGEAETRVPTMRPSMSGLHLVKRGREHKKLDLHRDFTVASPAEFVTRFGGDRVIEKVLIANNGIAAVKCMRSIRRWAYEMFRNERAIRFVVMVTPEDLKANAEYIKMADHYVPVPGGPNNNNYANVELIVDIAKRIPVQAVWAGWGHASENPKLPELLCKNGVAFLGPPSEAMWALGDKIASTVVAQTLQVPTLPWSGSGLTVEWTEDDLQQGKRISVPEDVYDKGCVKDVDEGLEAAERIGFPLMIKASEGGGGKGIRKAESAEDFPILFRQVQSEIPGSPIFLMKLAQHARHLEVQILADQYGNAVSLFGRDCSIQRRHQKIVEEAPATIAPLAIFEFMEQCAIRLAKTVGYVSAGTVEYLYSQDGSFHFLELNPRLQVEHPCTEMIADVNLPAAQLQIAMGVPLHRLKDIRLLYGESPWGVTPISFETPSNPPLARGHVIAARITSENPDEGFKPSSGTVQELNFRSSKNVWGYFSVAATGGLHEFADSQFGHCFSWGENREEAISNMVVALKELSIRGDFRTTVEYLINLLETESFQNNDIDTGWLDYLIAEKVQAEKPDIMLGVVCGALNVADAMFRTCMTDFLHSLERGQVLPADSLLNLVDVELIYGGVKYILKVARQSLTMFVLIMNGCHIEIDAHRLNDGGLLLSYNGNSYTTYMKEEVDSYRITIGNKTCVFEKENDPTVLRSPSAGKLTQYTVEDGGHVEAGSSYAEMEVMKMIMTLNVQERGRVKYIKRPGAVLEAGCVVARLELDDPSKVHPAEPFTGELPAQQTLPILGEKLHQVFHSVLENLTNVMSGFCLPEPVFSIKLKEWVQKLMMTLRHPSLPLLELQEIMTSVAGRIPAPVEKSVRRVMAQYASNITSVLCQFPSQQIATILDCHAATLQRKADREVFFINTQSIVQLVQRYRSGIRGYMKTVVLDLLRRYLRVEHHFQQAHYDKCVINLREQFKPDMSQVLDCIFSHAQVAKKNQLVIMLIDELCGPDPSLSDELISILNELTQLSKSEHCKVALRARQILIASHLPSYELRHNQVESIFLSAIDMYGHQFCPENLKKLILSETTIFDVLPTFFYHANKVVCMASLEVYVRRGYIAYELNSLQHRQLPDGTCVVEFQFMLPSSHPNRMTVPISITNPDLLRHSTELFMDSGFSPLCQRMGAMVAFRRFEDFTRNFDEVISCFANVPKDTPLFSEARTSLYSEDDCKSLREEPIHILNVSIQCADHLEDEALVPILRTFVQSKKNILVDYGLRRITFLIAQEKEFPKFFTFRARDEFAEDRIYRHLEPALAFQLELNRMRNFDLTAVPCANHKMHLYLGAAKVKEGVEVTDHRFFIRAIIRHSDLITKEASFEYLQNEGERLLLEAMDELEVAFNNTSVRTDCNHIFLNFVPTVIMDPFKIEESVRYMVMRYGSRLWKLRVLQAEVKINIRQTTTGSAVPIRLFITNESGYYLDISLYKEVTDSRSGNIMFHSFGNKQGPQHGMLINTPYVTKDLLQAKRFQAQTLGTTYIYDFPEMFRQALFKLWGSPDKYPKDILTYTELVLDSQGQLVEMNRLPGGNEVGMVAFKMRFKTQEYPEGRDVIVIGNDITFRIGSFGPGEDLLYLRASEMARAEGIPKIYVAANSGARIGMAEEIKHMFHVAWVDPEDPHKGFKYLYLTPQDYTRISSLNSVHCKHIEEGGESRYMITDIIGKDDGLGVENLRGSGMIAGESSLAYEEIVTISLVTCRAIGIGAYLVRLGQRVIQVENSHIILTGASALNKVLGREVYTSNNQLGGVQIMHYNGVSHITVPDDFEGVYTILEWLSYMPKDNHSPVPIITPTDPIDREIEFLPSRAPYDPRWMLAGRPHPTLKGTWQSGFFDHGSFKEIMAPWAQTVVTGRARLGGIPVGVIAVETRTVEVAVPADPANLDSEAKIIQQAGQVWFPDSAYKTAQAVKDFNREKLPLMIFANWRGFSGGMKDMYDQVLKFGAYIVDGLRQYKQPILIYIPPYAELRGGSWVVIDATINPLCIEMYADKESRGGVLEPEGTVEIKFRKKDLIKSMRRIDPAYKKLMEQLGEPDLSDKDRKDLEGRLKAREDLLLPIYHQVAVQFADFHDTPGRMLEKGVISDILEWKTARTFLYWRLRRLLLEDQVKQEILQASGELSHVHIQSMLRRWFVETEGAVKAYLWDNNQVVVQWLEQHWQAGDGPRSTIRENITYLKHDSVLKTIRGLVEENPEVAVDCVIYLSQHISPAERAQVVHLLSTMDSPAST

Row | SMILES | IC50 (human (hACC2) ACC2) [nM] | MIC (C. albicans ATCC 90028; [2]) [µg/mL] | MIC (C. krusei ATCC 6258; [3]) [µg/mL] | MIC [1, 4] [µg/mL] | IC50 (fungal (fACC2) ACC2) [nM] | MIC (C. albicans ATCC 90028; ATCC90028, 48 h) [µg/mL] | MIC (C. krusei ATCC 6258; ATCC6258, 48 h) [µg/mL] | MIC ([1]; ATCC22019, 48 h) [µg/mL]
1 | COc1ccccc1[C@H](Cn1c(=O)n(C(C)(C)C(=O)O)c(=O)c2c(C)c(-n3cccn3)sc21)OC1CCOCC1 [Compound I-71] | 10 to 40 | > 4.1 | > 4.1 | > 4.1 | 0.6 to 3 |  |  | 
2 | COc1ccccc1[C@H](Cn1c(=O)n(C(C)(C)C(=O)O)c(=O)c2c(C)c(-n3cccn3)sc21)O[C@H]1CC[C@@H](O)CC1 [Compound I-72] | 3 to 10 | > 4.1 | > 4.1 | > 4.1 | 0.6 to 3 |  |  | 
3 | COCCO[C@@H](Cn1c(=O)n([C@@H](C)C(=O)NC(C)C)c(=O)c2c(C)c(-n3cccn3)sc21)c1cc(F)ccc1OC [Compound I-73, (S)-2-(1-((R)-2-(5-fluoro-2-methoxyphenyl)-2-(2-methoxy-ethoxy)ethyl)-5-methyl-2,4-dioxo-6-(1H-pyrazol-1-yl)-1,4-dihydrothieno[2,3-d]pyrimidin-3(2H)-yl)-N-isopropylpropanamide] | 3 to 10 | 2.1 to 4 (≈ 3.57 to 6.81 µM) | > 4.1 | 2.1 to 4 (≈ 3.57 to 6.81 µM) | 0.6 to 3 |  |  | 
4 | COCCO[C@@H](Cn1c(=O)n([C@H](C)C(=O)NC(C)C)c(=O)c2c(C)c(-n3cccn3)sc21)c1cc(F)ccc1OC [Compound I-74, (R)-2-(1-((R)-2-(5-fluoro-2-methoxyphenyl)-2-(2-methoxy-ethoxy)ethyl)-5-methyl-2,4-dioxo-6-(1H-pyrazol-1-yl)-1,4-dihydrothieno[2,3-d]pyrimidin-3(2H)-yl)-N-isopropylpropanamide] | > 40 | > 4.1 | > 4.1 | > 4.1 | 10 to 40 |  |  | 
5 | COc1ccccc1[C@H](Cn1c(=O)n(C(C)(C)C(=O)NC(C)C)c(=O)c2c(C)c(-n3cccn3)sc21)OCCC#N [Compound I-80, (R)-2-(1-(2-(2-cyanoethoxy)-2-(2-methoxyphenyl)ethyl)-5-methyl-2,4-dioxo-6-(1H-pyrazol-1-yl)-1,4-dihydrothieno[2,3-d]pyrimidin-3(2H)-yl)-N-isopropyl-2-methylpropanamide] | 10 to 40 |  |  |  | 3 to 10 | > 4.1 | > 4.1 | > 4.1
6 | COc1ccccc1[C@H](Cn1c(=O)n(C(C)(C)C(N)=O)c(=O)c2c(C)c(-n3cccn3)sc21)OCCC#N [Compound I-83] | 10 to 40 | > 4.1 | > 4.1 | > 4.1 | 3 to 10 |  |  | 
7 | COc1ccccc1[C@H](Cn1c(=O)n(C(C)(C)C(=O)N2CCCC2)c(=O)c2c(C)c(-n3cccn3)sc21)OCCC#N [Compound I-84, (R)-3-(I-(2-methoxyphenyl)-2-(5-methyl-3-(2-methyl-1-oxo-1-(pyrrolidin-1-yl)propan-2-yl)-2,4-dioxo-6-(1H-pyrazol-1-yl)-3,4-dihydrothieno[2,3-d]pyrimidin-1(2H)-yl)ethoxy)propanenitrile] | 10 to 40 | > 4.1 | > 4.1 | > 4.1 | 0.6 to 3 |  |  | 
